Source: ChEMBL document CHEMBL4325871 (Eur J Med Chem, 2019)
The source made the active and inactive calls. The rule behind the calls is not given here.

Columns and labels:
[1] = biological target: T1, Serine/threonine-protein kinase Chk1 (Homo sapiens) (UniProt O14757); experiment: Inhibition of hydroxyurea-induced CHK1 phosphorylation at S296 residue in human HCT116 cells at 20 uM treated for 8 hrs starting from 24 hrs post hydroxyurea addition by Western blot analysis; type: cell-based
T1 sequence (whole entry): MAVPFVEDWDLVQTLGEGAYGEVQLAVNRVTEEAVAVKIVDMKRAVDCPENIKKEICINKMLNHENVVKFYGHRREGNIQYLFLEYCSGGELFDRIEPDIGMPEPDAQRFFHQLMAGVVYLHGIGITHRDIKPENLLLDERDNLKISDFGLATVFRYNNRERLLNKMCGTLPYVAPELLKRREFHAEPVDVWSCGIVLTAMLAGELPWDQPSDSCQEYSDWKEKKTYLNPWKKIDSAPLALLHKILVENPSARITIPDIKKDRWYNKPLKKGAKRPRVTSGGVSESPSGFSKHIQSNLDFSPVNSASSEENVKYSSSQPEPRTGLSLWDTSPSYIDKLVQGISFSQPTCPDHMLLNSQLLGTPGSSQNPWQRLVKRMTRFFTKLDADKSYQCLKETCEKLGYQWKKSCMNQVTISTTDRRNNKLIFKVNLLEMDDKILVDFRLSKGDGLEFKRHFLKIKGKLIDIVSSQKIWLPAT

[2] = biological target: Tyrosine-protein kinase ABL2 (Homo sapiens) (UniProt P42684); experiment: Inhibition of human ABL2 assessed as residual activity at 1 uM using EAIYAAPFAKKK as substrate by [gamma-33P]-ATP assay relative to control
[3] = biological target: Bone morphogenetic protein receptor type-2 (Homo sapiens) (UniProt Q13873); experiment: Inhibition of human BMPR2 assessed as residual activity at 1 uM using MBP as substrate by [gamma-33P]-ATP assay relative to control
Chain of Bone morphogenetic protein receptor type-2 (Homo sapiens) (Q13873 whole entry): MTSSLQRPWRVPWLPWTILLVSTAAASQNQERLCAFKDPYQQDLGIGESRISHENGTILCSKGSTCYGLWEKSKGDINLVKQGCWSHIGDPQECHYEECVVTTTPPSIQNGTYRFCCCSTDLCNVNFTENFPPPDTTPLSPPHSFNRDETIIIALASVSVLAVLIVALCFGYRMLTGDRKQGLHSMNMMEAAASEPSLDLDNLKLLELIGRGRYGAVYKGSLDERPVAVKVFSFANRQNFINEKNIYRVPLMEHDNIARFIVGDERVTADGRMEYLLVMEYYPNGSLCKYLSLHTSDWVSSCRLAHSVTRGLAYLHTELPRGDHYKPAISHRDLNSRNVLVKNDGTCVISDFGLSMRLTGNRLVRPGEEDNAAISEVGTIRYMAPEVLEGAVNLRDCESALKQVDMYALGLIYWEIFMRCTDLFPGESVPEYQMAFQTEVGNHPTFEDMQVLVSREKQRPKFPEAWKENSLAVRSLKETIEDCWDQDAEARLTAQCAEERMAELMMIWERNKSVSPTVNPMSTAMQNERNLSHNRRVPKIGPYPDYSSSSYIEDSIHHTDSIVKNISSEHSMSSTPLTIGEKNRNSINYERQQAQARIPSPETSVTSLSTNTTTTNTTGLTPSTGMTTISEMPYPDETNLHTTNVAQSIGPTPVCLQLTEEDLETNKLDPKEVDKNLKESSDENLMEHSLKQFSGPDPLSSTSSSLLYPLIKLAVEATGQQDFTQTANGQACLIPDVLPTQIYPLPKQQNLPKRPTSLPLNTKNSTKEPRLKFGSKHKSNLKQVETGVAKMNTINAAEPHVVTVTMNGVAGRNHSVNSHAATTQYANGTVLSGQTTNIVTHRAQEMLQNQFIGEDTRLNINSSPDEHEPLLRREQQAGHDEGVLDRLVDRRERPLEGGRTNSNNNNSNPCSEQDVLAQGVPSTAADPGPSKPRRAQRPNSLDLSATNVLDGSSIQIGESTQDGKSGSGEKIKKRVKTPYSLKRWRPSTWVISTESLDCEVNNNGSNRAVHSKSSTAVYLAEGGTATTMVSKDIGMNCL

[4] = biological target: Calcium/calmodulin-dependent protein kinase type 1D (Homo sapiens) (UniProt Q8IU85); experiment: Inhibition of human CAMK1D assessed as residual activity at 1 uM using KKALRRQETVDAL as substrate by [gamma-33P]-ATP assay relative to control
Chain of Calcium/calmodulin-dependent protein kinase type 1D (Homo sapiens) (Q8IU85 whole entry, looked up): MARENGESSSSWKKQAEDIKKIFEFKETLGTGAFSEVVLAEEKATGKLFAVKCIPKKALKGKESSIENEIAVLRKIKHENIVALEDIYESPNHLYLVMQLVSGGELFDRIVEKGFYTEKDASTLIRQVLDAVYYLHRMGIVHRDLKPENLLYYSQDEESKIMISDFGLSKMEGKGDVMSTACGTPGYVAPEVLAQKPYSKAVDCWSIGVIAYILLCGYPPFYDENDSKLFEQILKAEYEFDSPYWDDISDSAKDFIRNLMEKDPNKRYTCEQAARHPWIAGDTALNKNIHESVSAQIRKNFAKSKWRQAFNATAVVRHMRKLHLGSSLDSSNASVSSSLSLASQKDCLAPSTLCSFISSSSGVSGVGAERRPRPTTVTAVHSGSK

[5] = biological target: Calcium/calmodulin-dependent protein kinase type II subunit alpha (Homo sapiens) (UniProt Q9UQM7); experiment: Inhibition of human CAMK2A assessed as residual activity at 1 uM using KKALRRQETVDAL as substrate by [gamma-33P]-ATP assay relative to control
[6] = biological target: Calcium/calmodulin-dependent protein kinase type IV (Homo sapiens) (UniProt Q16566); experiment: Inhibition of human CAMK4 assessed as residual activity at 1 uM using KKLNRTLSFAEPG as substrate by [gamma-33P]-ATP assay relative to control
[7] = biological target: Fibroblast growth factor receptor 3 (Homo sapiens) (UniProt P22607); experiment: Inhibition of human FGFR3 assessed as residual activity at 1 uM using poly[Glu:Tyr] (4:1) as substrate by [gamma-33P]-ATP assay relative to control
Chain of Fibroblast growth factor receptor 3 (Homo sapiens) (P22607 23-806 limits assumed): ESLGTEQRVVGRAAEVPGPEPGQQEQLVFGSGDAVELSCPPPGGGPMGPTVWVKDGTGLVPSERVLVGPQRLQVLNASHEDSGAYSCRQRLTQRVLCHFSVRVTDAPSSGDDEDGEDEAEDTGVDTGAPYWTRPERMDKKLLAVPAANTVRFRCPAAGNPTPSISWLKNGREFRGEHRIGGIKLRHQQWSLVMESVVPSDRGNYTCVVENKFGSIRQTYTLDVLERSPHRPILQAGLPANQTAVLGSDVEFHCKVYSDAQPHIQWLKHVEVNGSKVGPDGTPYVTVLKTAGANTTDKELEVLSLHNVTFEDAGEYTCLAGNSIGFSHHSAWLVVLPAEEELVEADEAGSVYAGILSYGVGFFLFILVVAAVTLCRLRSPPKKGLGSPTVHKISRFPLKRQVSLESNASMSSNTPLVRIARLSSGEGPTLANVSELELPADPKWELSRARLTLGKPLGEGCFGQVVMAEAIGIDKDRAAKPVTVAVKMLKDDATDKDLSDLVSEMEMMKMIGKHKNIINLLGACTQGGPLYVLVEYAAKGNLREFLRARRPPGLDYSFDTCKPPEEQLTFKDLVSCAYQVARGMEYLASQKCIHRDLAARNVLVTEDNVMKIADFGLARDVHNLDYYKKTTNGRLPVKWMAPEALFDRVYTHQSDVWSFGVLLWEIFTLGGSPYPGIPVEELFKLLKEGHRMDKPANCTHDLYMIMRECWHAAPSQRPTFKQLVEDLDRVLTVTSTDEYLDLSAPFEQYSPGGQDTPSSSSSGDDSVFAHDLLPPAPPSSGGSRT

[8] = biological target: Glycogen synthase kinase-3 beta (Homo sapiens) (UniProt P49841); experiment: Inhibition of human GSK3B assessed as residual activity at 1 uM using YRRAAVPPSPSLSRHSSPHQ(pS)EDEEE as substrate by [gamma-33P]-ATP assay relative to control
Chain of Glycogen synthase kinase-3 beta (Homo sapiens) (P49841 whole entry, looked up): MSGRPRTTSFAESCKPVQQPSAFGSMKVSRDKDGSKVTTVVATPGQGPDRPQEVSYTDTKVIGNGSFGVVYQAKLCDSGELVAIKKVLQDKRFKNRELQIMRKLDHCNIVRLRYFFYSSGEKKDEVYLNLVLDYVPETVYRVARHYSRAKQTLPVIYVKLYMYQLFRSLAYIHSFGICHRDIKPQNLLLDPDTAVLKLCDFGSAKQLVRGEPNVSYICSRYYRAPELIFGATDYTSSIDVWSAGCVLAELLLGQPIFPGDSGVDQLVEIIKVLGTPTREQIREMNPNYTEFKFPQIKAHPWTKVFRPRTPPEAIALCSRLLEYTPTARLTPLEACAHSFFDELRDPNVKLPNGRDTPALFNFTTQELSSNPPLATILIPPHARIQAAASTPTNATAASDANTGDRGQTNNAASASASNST

[9] = biological target: Inhibitor of nuclear factor kappa-B kinase subunit alpha (Homo sapiens) (UniProt O15111); experiment: Inhibition of human IKKalpha assessed as residual activity at 1 uM using KKKKERLLDDRHDSGLDSMKDEE as substrate by [gamma-33P]-ATP assay relative to control
Chain of Inhibitor of nuclear factor kappa-B kinase subunit alpha (Homo sapiens) (O15111 whole entry): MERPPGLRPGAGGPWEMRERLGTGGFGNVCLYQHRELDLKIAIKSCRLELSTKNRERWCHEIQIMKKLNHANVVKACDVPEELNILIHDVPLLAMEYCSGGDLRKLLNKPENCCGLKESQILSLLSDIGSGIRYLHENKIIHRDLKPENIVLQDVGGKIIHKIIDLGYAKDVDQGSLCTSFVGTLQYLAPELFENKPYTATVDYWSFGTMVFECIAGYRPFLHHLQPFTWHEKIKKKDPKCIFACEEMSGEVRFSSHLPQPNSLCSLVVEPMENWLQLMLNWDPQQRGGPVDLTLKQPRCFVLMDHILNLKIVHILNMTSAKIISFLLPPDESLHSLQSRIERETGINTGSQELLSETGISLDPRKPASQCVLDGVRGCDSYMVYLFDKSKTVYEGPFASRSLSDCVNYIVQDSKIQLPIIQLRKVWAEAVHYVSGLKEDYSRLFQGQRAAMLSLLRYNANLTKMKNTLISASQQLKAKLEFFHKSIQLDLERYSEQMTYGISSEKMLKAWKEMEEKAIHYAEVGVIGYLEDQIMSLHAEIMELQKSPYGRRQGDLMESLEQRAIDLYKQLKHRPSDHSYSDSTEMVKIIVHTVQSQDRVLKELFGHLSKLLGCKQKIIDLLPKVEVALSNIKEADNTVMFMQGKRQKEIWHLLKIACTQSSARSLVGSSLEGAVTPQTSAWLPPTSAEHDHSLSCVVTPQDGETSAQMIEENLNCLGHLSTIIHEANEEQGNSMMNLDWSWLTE

[10] = biological target: Dual specificity mitogen-activated protein kinase kinase 7 (Homo sapiens) (UniProt O14733); experiment: Inhibition of human MKK7 assessed as residual activity at 1 uM using JNK as substrate by [gamma-33P]-ATP assay relative to control
Chain of Dual specificity mitogen-activated protein kinase kinase 7 (Homo sapiens) (O14733 whole entry): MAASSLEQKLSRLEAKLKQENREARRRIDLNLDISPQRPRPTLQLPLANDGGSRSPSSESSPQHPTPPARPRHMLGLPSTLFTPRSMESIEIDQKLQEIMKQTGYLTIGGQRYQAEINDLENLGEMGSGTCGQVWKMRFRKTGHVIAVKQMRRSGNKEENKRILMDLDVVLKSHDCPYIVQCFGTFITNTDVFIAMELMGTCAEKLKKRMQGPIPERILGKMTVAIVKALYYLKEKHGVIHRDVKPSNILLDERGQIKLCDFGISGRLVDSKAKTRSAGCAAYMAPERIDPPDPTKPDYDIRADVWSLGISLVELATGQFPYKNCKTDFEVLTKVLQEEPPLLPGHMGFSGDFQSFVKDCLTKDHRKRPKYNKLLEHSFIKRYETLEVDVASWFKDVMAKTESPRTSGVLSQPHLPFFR

[11] = biological target: Mitogen-activated protein kinase kinase kinase 10 (Homo sapiens) (UniProt Q02779); experiment: Inhibition of human MLK2 assessed as residual activity at 1 uM using MBP as substrate by [gamma-33P]-ATP assay relative to control
[12] = biological target: MAP kinase-interacting serine/threonine-protein kinase 1 (Homo sapiens) (UniProt Q9BUB5); experiment: Inhibition of human MNK1 assessed as residual activity at 1 uM using MBP as substrate by [gamma-33P]-ATP assay relative to control
Chain of MAP kinase-interacting serine/threonine-protein kinase 1 (Homo sapiens) (Q9BUB5 whole entry, looked up): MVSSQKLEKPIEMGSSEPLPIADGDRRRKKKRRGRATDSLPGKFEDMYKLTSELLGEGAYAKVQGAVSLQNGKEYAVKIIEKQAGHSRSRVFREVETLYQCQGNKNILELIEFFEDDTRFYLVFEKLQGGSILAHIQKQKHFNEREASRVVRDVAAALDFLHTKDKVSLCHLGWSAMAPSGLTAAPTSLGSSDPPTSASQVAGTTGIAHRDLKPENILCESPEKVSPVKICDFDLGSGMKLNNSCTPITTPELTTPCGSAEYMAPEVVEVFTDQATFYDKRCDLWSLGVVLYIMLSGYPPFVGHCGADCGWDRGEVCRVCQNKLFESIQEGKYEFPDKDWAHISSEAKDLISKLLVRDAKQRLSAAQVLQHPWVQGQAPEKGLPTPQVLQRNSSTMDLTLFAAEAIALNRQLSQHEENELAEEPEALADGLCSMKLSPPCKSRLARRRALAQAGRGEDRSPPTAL

[13] = biological target: Serine/threonine-protein kinase Nek2 (Homo sapiens) (UniProt P51955); experiment: Inhibition of human NEK2 assessed as residual activity at 1 uM using MBP as substrate by [gamma-33P]-ATP assay relative to control
[14] = biological target: Serine/threonine-protein kinase N1 (Homo sapiens) (UniProt Q16512); experiment: Inhibition of human PKN1 assessed as residual activity at 1 uM using KKLNRTLSVA as substrate by [gamma-33P]-ATP assay relative to control
[15] = biological target: Calcium/calmodulin-dependent protein kinase kinase 2 (Homo sapiens) (UniProt Q96RR4); experiment: Inhibition of human CAMKK2 assessed as residual activity at 1 uM using MBP as substrate by [gamma-33P]-ATP assay relative to control
[16] = biological target: Serine/threonine-protein kinase DCLK1 (Homo sapiens) (UniProt O15075); experiment: Inhibition of human DCAMKL1 assessed as residual activity at 1 uM using KKLNRTLSFAEPG as substrate by [gamma-33P]-ATP assay relative to control
[17] = biological target: Tyrosine-protein kinase JAK3 (Homo sapiens) (UniProt P52333); experiment: Inhibition of human JAK3 assessed as residual activity at 1 uM using poly[Glu:Tyr] (4:1) as substrate by [gamma-33P]-ATP assay relative to control
[18] = biological target: Serine/threonine-protein kinase MARK2 (Homo sapiens) (UniProt Q7KZI7); experiment: Inhibition of human MARK2 assessed as residual activity at 1 uM using KKKVSRSGLYRSPSMPENLNRPR as substrate by [gamma-33P]-ATP assay relative to control
[19] = biological target: Inactive tyrosine-protein kinase PEAK1 (Homo sapiens) (UniProt Q9H792); experiment: Inhibition of human PEAK1 assessed as residual activity at 1 uM using MBP as substrate by [gamma-33P]-ATP assay relative to control
[20] = biological target: Protein kinase C delta type (Homo sapiens) (UniProt Q05655); experiment: Inhibition of human PKCdelta assessed as residual activity at 1 uM using ERMRPRKRQGSVRRRV as substrate by [gamma-33P]-ATP assay relative to control
[21] = biological target: Protein kinase C theta type (Homo sapiens) (UniProt Q04759); experiment: Inhibition of human PKCtheta assessed as residual activity at 1 uM using Histone H1 as substrate by [gamma-33P]-ATP assay relative to control
Chain of Protein kinase C theta type (Homo sapiens) (Q04759 whole entry, looked up): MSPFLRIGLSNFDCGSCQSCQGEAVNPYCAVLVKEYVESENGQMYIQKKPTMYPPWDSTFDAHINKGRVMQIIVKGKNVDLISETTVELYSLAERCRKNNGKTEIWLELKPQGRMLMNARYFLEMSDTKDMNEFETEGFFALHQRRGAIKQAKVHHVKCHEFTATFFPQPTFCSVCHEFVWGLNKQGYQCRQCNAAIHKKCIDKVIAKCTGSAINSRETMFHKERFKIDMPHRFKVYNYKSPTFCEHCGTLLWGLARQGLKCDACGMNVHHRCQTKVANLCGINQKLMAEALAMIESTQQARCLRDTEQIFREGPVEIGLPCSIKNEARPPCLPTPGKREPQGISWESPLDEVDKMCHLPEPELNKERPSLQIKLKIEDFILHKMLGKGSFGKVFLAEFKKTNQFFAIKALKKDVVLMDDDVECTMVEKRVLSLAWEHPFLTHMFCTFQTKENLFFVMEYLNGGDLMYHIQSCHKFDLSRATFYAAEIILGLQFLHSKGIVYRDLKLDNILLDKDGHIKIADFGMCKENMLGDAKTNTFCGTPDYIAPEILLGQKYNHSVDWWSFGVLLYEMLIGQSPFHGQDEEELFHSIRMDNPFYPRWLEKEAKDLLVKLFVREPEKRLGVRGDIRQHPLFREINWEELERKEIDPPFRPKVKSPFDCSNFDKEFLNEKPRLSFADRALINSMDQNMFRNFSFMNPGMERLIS

[22] = biological target: Serine/threonine-protein kinase PLK2 (Homo sapiens) (UniProt Q9NYY3); experiment: Inhibition of human PLK2 assessed as residual activity at 1 uM using casein as substrate by [gamma-33P]-ATP assay relative to control
[23] = biological target: High affinity nerve growth factor receptor (Homo sapiens) (UniProt P04629); experiment: Inhibition of human TRKA assessed as residual activity at 1 uM using poly[Glu:Tyr] (4:1) as substrate by [gamma-33P]-ATP assay relative to control

For `C(=C\c1ccccc1)/C[N+]12CN3CN(CN(C3)C1)C2`, the inhibition [1] was “Active”, the Activity [2] was 93.5 to 96.7% and the Activity [3] was 96.8 to 98.9%. The Activity [4] was 98.4 to 98.8%, the Activity [5] was 93.1 to 94.1% and the Activity [6] was 92.2 to 94.4%. For the same compound, the Activity [7] was 93.8 to 94.8%, the Activity [8] was 93.6 to 94.9% and the Activity [9] was 94 to 95.2%. The Activity [10] was 96.4 to 98.9%, the Activity [11] was 96 to 96.1% and the Activity [12] was 96.3 to 99.7%. For the same compound, the Activity [13] was 106% and the Activity [14] was 87.8 to 90.1%.
`ClC/C=C/C[N+]12CN3CN(CN(C3)C1)C2` showed an Activity [15] of 83.7 to 87.4%, an Activity [16] of 92.8 to 93.2% and an Activity [17] of 94.2 to 96.6%. It also gave an Activity [18] of 94.5%, an Activity [19] of 94.2 to 94.3% and an Activity [20] of 115 to 117%. It also gave an Activity [21] of 111 to 115%, an Activity [22] of 96.6 to 96.8% and an Activity [23] of 94 to 94.8%.
